Measured values from US20240382403A1, “COSMETIC, DERMATOLOGICAL OR COSMECEUTICAL TREATMENT, IN PARTICULAR PROPIGMENTING” (Sederma, priority 2021, published 2024).

Legend:
NHM [1] = experiment: Pigmentation of NHM, microscopic observation by expert; format: cell-based, human; conditions: 10 days
Description: NHM are cultivated and placed in contact with the product according to the invention for 10 days. At the end of this contact period, cells are observed with a microscope and variation of pigmentation of cells versus control is evaluated by an expert.

[2] = test system: normal human melanocytes (NHM); experiment: Melanin production by NHM without UV induction (spectrophotometry); format: cell-based; conditions: for melanin production by NHM, Variation (%) vs control / Melanin: n = 4; for increase in pigmentation of NHM vs. control: 16 ppm; for Melanin Variation (%) vs control / Melanin: 10 days contact; for Melanin: without UV induction
Description: (§1) NHM are cultivated and placed in contact with the product according to the invention for 10 days. At the end of this contact period, the mats are ground and the melanin is extracted from the cells. The quantity of melanin is assessed by spectrophotometry, using a standard range established previously from a melanin solution and compared to the control. A protein assay using the bicinchoninic acid (BCA) method is performed to estimate the quantity of cells and to standardise the obtained data.
The tests were carried out on NHM, the protocol being the same to the one above of point a)
The protocol is the same as that of point a) above.

HaCaT keratinoctes [3] = experiment: Laminin production by keratinocytes (ELISA); format: cell-based; conditions: 3 days; for Laminin: n = 4
Description: (§2) HaCaT keratinoctes are seeded and cultured and, once at sub-confluence, receive the tyrosine derivative according to the invention, or its solvent, at different concentrations for 3 days. At the end of this period, the media are collected for hyaluronic acid and laminin assays using ELISA methods. The cell concentration is estimated using the Hoescht method.

keratinocytes [4] = experiment: IL6 in keratinocytes with UVB (ELISA); format: cell-based; conditions: for IL6 with UVB irradiation: n = 2
Description: (§3) Keratinocytes are seeded and cultured and, once at sub-confluence, receive the tyrosine derivative according to the invention, or its solvent, at different concentrations. After 24 hours, the cells are rinsed and then exposed to UVB, and the cells are then re-treated with the media containing the tyrosine derivative according to the invention at different concentrations for 24 hours. Other cases are not exposed. The culture media are assayed for PGE2, IL6 and IL8 using ELISA methods. The number of cells was estimated using the Hoescht method.

B16 mouse pigment cells [5] = experiment: Melanin production by B16 mouse pigment cells; format: cell-based; conditions: 2 days contact; for Melanin: n = 4
Description: as §1
(§4) B16 mouse pigment cells are cultivated and placed in contact with the product according to the invention for 2 days. For this type of cells, tyrosinase is also assayed. Tyrosinase is the first enzyme in the chain of melanogenesis, changing tyrosine to DOPA-quinone.

B16 mouse pigment cells [6] = experiment: Number of cells in the B16 melanin test; format: cell-based; conditions: tested concentrations 5.5 and 11 ppm
Description: as §1, §4

keratinocytes [7] = experiment: IL8 in keratinocytes with UVB (ELISA); format: cell-based; conditions: for IL8 with UVB irradiation: n = 2
Description: as §3

keratinocytes [8] = experiment: PGE2 in keratinocytes with or without UVB (ELISA); format: cell-based; conditions: for PGE2 with UVB irradiation / PGE2 without irradiation: n = 3
Description: as §3

[9] = test system: Normal human keratinocytes (NHK); experiment: NHK phagocytosis of fluorescent microbeads mimicking melanosomes; format: cell-based; conditions: for Phagocytosis (μbeas: (Total Area/1000)): 24 h treatment then beads 3 h, n = 4
Description: Normal human keratinocytes (NHK) are seeded and cultured and, once at 50% sub-confluence, receive the tyrosine derivative according to the invention, or its solvent, at different concentrations for 24 h. At the end of this period, the cells receive the fluorescent microbeads mimicking melanosomes for 3 h. Then, the cells are rinsed to remove excess beads, and the mats are visualized under a fluorescence microscope to quantify phagocytosis. The cell concentration is estimated using the Hoescht method.

fibroblasts = experiment: PGE2 in fibroblasts with or without UVB (ELISA); format: cell-based; conditions: for PGE2 with UVB irradiation / PGE2 without irradiation: n = 3
Description: as §3
The same protocol is applied in parallel to Fibroblasts.

HaCaT keratinoctes [10] = experiment: Hyaluronic acid production by keratinocytes (ELISA); format: cell-based; conditions: 3 days; for Hyaluronic acid: n = 4
Description: as §2

Tyrosinase = Tyrosinase activity by B16 mouse pigment cells; format: cell-based; conditions: 2 days contact; for Tyrosinase: n = 4
Description: as §4

NHM [11] = experiment: Number of cells (BCA protein assay) in the NHM melanin test; format: cell-based, human; conditions: tested concentrations 5.5 and 11 ppm
Description: as §1

[12] = 12.5 μM (5.5 ppm of N-Palmitoyl-O-methyl-L-Tyrosine, 5.25 ppm of N-Palmitoyl-L-Tyrosine)
[13] = 25 μM (11 ppm of N-Palmitoyl-O-methyl-L-Tyrosine, 10.5 ppm of N-Palmitoyl-L-Tyrosine)

Compound: CCCCCCCCCCCCCCCC(=O)N[C@@H](Cc1ccc(O)cc1)C(=O)O [N-Palmitoyl-L-Tyrosine, reference compound]
- Variation of pigmentation of cells versus control (expert grade) (NHM [1]; 12.5 μM): 0
- Variation of pigmentation of cells versus control (expert grade) (NHM [1]; 25 μM): 0
- melanin production by NHM, Variation (%) vs control [2, 12]: +7%; dns
- melanin production by NHM, Variation (%) vs control [2, 13]: +10%; dns

Compound: CCCCCCCC/C=C\CCCCCCCCN[C@@H](Cc1ccc(O)cc1)C(=O)O [oleyl tyrosine, reference compound]
- increase in pigmentation of NHM vs. control ([2]; NHM): 9%
- increase in NHM pigmentation vs. control ([2]; NHM, approximately 3 times more oleyl tyrosine applied than 16 ppm): +35%

Compound: CCCCCCCCCCCCCCCC(=O)N[C@@H](Cc1ccc(OC)cc1)C(=O)O [N-Palmitoyl-O-methyl-L-Tyrosine]
- Laminin Variation (%) vs control (HaCaT keratinoctes [3]; 2.75 ppm): +33%; p < 0.01
- Laminin (HaCaT keratinoctes [3]; 2.75 ppm): 88 +/− 3 ng/10^6 cell.
- Laminin Variation (%) vs control (HaCaT keratinoctes [3]; 5.5 ppm): +69%; p < 0.01
- Laminin (HaCaT keratinoctes [3]; 5.5 ppm): 111 +/− 9 ng/10^6 cell.
- IL6 with UVB irradiation Variation (%) vs control (keratinocytes [4]; 5.5 ppm): −43%; p < 0.01
- IL6 with UVB irradiation (keratinocytes [4]; 5.5 ppm): 880 +/− 142 ng/10^6 cell.
- IL6 with UVB irradiation Variation (%) vs control (keratinocytes [4]; 11 ppm): −45%; p < 0.01
- IL6 with UVB irradiation (keratinocytes [4]; 11 ppm): 853 +/− 115 ng/10^6 cell.
- Melanin Variation (%) vs control (B16 mouse pigment cells [5]; 5.5 ppm): +26%; p < 0.01
- Melanin (B16 mouse pigment cells [5]; 5.5 ppm): 171.1 +/− 2.3 μg/mL/10^6 cell.
- Melanin Variation (%) vs control (B16 mouse pigment cells [5]; 11 ppm): +62%; p < 0.01
- Melanin (B16 mouse pigment cells [5]; 11 ppm): 220.7 +/− 8.7 μg/mL/10^6 cell.
- number of cells / toxicity (B16 mouse pigment cells [6]): neither toxic nor multiplication activator
- IL8 with UVB irradiation Variation (%) vs control (keratinocytes [7]; 5.5 ppm): −42%; p < 0.01
- IL8 with UVB irradiation (keratinocytes [7]; 5.5 ppm): 4.3 +/− 0.7 ng/10^6 cell.
- IL8 with UVB irradiation Variation (%) vs control (keratinocytes [7]; 11 ppm): −90%; p < 0.01
- IL8 with UVB irradiation (keratinocytes [7]; 11 ppm): 0.7 +/− 0 ng/10^6 cell.
- PGE2 with UVB irradiation Variation (%) vs control (keratinocytes [8]; 5.5 ppm): −62%; p < 0.01
- PGE2 without irradiation Variation (%) vs control (keratinocytes [8]; 5.5 ppm): −60%; p < 0.01
- PGE2 with UVB irradiation (keratinocytes [8]; 5.5 ppm): 101 +/− 7 ng/10^6 cell.
- PGE2 without irradiation (keratinocytes [8]; 5.5 ppm): 51 +/− 5 ng/10^6 cell.
- PGE2 with UVB irradiation Variation (%) vs control (keratinocytes [8]; 11 ppm): −73%; p < 0.01
- PGE2 without irradiation Variation (%) vs control (keratinocytes [8]; 11 ppm): −58%; p < 0.01
- PGE2 with UVB irradiation (keratinocytes [8]; 11 ppm): 72 +/− 3 ng/10^6 cell.
- PGE2 without irradiation (keratinocytes [8]; 11 ppm): 54 +/− 5 ng/10^6 cell.
- Phagocytosis Variation (%) vs control ([9]; 5.5 ppm): +71%; p < 0.01
- Phagocytosis Variation (%) vs control ([9]; 11 ppm): +129%; p < 0.01
- Phagocytosis (μbeas: (Total Area/1000)) ([9]; 5.5 ppm): 6599 +/− 1115 Total Area/1000
- Phagocytosis (μbeas: (Total Area/1000)) ([9]; 11 ppm): 9910 +/− 1161 Total Area/1000
- PGE2 without irradiation Variation (%) vs control (fibroblasts; 5.5 ppm): −32%; p < 0.01
- PGE2 with UVB irradiation (fibroblasts; 5.5 ppm): 7332 +/− 478 ng/10^6 cell.
- PGE2 without irradiation (fibroblasts; 5.5 ppm): 7420 +/− 422 ng/10^6 cell.
- PGE2 with UVB irradiation Variation (%) vs control (fibroblasts; 5.5 ppm, non significant data): −19%; nsd*
- PGE2 with UVB irradiation Variation (%) vs control (fibroblasts; 11 ppm): −33%; p < 0.01
- PGE2 without irradiation Variation (%) vs control (fibroblasts; 11 ppm): −41%; p < 0.01
- PGE2 with UVB irradiation (fibroblasts; 11 ppm): 6117 +/− 735 ng/10^6 cell.
- PGE2 without irradiation (fibroblasts; 11 ppm): 6470 +/− 311 ng/10^6 cell.
- Hyaluronic acid Variation (%) vs control (HaCaT keratinoctes [10]; 1.375 ppm): +35%; p < 0.01
- Hyaluronic acid (HaCaT keratinoctes [10]; 1.375 ppm): 402 +/− 35 ng/10^6 cell.
- Hyaluronic acid Variation (%) vs control (HaCaT keratinoctes [10]; 2.75 ppm): +31%; p < 0.01
- Hyaluronic acid (HaCaT keratinoctes [10]; 2.75 ppm): 391 +/− 25 ng/10^6 cell.
- Tyrosinase Variation (%) vs control (Tyrosinase; 5.5 ppm): +9.7%; p < 0.01
- Tyrosinase (Tyrosinase; 5.5 ppm): 2.8 +/− 0 U/1000 μg protein
- Tyrosinase Variation (%) vs control (Tyrosinase; 11 ppm): +20.5%; p < 0.01
- Tyrosinase (Tyrosinase; 11 ppm): 3.1 +/− 0 U/1000 μg protein
- melanin production by NHM, Variation (%) vs control [2, 12]: +50%; p < 0.01
- melanin production by NHM, Variation (%) vs control [2, 13]: +86%; p < 0.01
- increase in pigmentation of NHM vs. control ([2]; NHM): 52%
- Melanin Variation (%) vs control ([2]; NHM, 5.5 ppm): +50%; p < 0.01
- Melanin ([2]; NHM, 5.5 ppm): 404 +/− 42 μg/mL/10^6 cell.
- Melanin Variation (%) vs control ([2]; NHM, 11 ppm): +86%; p < 0.01
- Melanin ([2]; NHM, 11 ppm): 501 +/− 41 μg/mL/10^6 cell.
- number of cells / toxicity (NHM [11]): neither toxic nor multiplication activator
